The text below walks through data of publication PMC12172596, “Unveiling New Triazoloquinoxaline‐Based PROTACs Designed for the Selective Degradation of the ncBAF Chromatin Remodeling Subunit BRD9” (Chemistry (Weinheim an Der Bergstrasse, Germany), 2025).

In one data set the test system is U937 cells. Briefly: CCK8 viability assay in U937 cells. The class given is cell-based, human. The conditions noted are these: CCK8, 48 hours treatment. The protocol: The AML U937 cell line (ATCC) was grown in Roswell Park Memorial Institute (RPMI) 1640 Medium with the addition of 10% fetal bovine serum (FBS), 1% L‐glutamine, and 1% antibiotics (100 U/mL penicillin, 100 µg/mL streptomycin, and 250 ng/mL amphotericin‐B). Cells have been authenticated by STR profiling.
CCK8 was purchased from Elabscience and used according to manufacturer instructions, briefly: 100 µL of cell suspension was added to each well using a 96‐well microplate. Cells were then incubated at 37 °C, in a 5% CO2 incubator for 24 hours. Compounds were added to the cells and incubated for an additional 48 hours at 37 °C. Next, 10 µL of CCK‐8 Buffer was added to each well, and cells were incubated again for 4 hours. Next, 450 nm absorbance was measured using a TECAN microplate reader.
A general note: Formazan colour is commonly taken as a measure of viable cells.

The nature of data set [1]: Microsomal stability in human liver microsomes (HLMs). The class given is in vitro ADME. The conditions noted are these: LC-MS/MS analysis. The protocol: In our assay we followed the loss of the test compounds over time under CYP‐mediated metabolic pathways. The extent of hepatic metabolism allowed us the determination of different pharmacokinetic parameters such as in vitro t1/2, CLint, in vitro and CLint, in vivo. In vitro t1/2 and CLint, in vitro of test compounds after liver microsomes incubation were calculated according to “well‐stirred” model. In the “well‐stirred” model, the liver is represented by a single compartment, where the unbound concentration of a drug leaving the liver is in equilibrium with the intracellular unbound concentration in the hepatocytes.^[ [53] ^] Predicted CLint, invivo values were determined using human PBSF.^[ [54] ^]
The microsomal stability of compounds 2 and 9 was assessed according to the previously described protocol.^[ [73] ^] […] The supernatants were collected and analyzed by LC‐MS/MS. The extent of metabolism is quantified as a percentage of the parent compound turnover. […] In vitro half‐lives (t1/2) were calculated using the expression t1/2 = 0.693/b, where b is the slope found in the linear fit of the natural logarithm of the fraction remaining of the parent compound versus incubation time. Microsomal intrinsic clearance was calculated as CLint , in vitro = (1000) × (0.693/t1/2)/0.5. […]
On the technique in general: Microsomes from liver hold many membrane-bound enzymes, among them those of drug oxidation.

For data set [2], the target named is T1, BRD9 (BD1) (Homo sapiens, UniProt Q9H8M2).
T1 construct: BSP‐32519
T1 sequence (Q9H8M2 136-240 limits assumed): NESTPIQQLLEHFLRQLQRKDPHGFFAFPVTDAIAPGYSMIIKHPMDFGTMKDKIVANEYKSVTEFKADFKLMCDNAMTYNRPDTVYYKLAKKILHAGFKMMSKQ
Briefly: AlphaScreen assay, BRD9 (BD1) Inhibitor Screening Assay Kit. The class given is binding. The protocol:
The evaluation of the interaction between synthesized compounds and BRD9 was conducted using AlphaScreen Technology using an Enspire microplate analyzer (Perkin Elmer)^[ [70] ^] and the BRD9 (BD1) Inhibitor Screening Assay Kit (BSP‐32519) as reported by Colarusso et al.^[ [38], [39] ^] IC50 values were calculated by GraphPad Prism10 software.

Another data set can be described thus: Human plasma stability. The class given is in vitro ADME. The conditions noted are these: incubation up to 120 minutes, 37 °C, read-out: compound recovery after incubation with human plasma. The protocol: The plasma stability of compounds 2 and 9 was evaluated. Briefly, the plasma was equilibrated at 37 °C, and biotransformation was initiated by adding the compound solution and mixing. At each specified time point (0, 60, and 120 minutes), test compounds were extracted into 200 µL ice‐cold methanol to stop degradation. Tolbutamide was added during the quenching phase. Finally, the concentration of the test compound was monitored by LC‐MS. The percentage of the test compound remaining at each individual time point was reported. The results are reported as mean ± SD from three independent experiments. Procaine and procainamide were used as controls.

For the next data set, the target named is T2, BRD9 (Homo sapiens, UniProt Q9H8M2).
T2 construct: WB analysis showing BRD9 protein levels following 48‐hours treatments with compounds 2−8; endogenous in cells; host or cells: U937 (ATCC)
T2 sequence (Q9H8M2 1-597): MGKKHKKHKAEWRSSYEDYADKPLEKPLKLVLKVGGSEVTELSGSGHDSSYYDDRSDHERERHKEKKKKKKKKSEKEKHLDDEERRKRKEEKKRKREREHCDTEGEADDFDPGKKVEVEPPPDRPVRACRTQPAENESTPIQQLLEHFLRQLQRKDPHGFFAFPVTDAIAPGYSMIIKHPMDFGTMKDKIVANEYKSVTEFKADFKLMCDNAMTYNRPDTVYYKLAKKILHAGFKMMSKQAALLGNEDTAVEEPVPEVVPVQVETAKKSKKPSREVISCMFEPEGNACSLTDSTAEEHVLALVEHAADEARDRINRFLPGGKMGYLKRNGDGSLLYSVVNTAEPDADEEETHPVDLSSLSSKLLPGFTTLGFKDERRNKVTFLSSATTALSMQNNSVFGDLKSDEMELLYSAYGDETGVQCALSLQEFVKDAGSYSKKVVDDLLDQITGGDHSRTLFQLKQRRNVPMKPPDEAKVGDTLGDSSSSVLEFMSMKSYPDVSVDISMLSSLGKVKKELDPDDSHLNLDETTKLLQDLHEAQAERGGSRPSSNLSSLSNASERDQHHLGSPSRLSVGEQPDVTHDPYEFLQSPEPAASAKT
The data set is described as follows: Western blotting of BRD9 protein levels in U937 cells. The class given is cell-based. The note with it: 48 hours treatment, different concentrations, western blot. The protocol:
Cells have been authenticated by STR profiling.
Western blot was performed according to the previous protocol.^[ [71], [72] ^] U937 AML cells were pelleted and then lysed in RIPA buffer (1% Triton X‐100, 0.1% SDS, 150 mM NaCl, 1 mM EDTA pH 8, 10 mM Tris‐HCl pH 8) added with 1% protease inhibitor cocktail. The resulting lysate was subjected to centrifugation for 15 minutes at 4 °C. […] The protein signal was visualized by enhanced chemiluminescence method (ECL) through the Bio‐Rad Chemidoc machine. ImageJ software was used for densitometric analysis.
(In general: Immunoblotting shows a protein as a band on a membrane.)

Data set [3] concerns the target T1, BRD9 (BD1). Details: method as in PMID 34823196. The note with it: previously disclosed; read-out: IC50, affinity for BRD9; cited from earlier work.

Where two headings read alike, the source gives them in different places.

As to `CCc1nnc2c(Nc3cccc(NC(=O)CCOCCNc4cccc5c4C(=O)N(C4CCC(=O)NC4=O)C5=O)c3)nc3ccccc3n12` (centres unmarked) [compound 5], the U937 cell viability result in the data set with U937 cells is listed as “strong reduction of cell viability”.
The term IC50 denotes the midpoint of a concentration-inhibition curve. For the compound `CCc1nnc2c(Nc3cccc(NC(=O)CCCCCCOCCOCC(=O)N[C@H](C(=O)N4C[C@H](O)C[C@H]4C(=O)NCc4ccc(-c5scnc5C)cc4)C(C)(C)C)c3)nc3ccccc3n12` [compound 2], the “primary metabolites after incubation with HLMs” value in data set [1] was “dealkylation reactions”. The “residual binding of histone H4” value at BRD9 (BD1) [2] (10 µM ligand concentration) worked out at 21.6 ± 0.3%. The IC50 at BRD9 (BD1) [2] (AlphaScreen, read-out: IC50, BRD9 binding) came to 2.97 ± 0.25 µM. Further, the U937 cell viability entry with U937 cells is on record as “strong reduction of cell viability”. In addition, the recovery at 120 min in the data set “Human plasma stability” is at least 90%.
For the compound `CCc1nnc2c(Nc3cccc(NC(=O)CCOCCOCCOCCNc4cccc5c4C(=O)N(C4CCC(=O)NC4=O)C5=O)c3)nc3ccccc3n12` (centres unmarked) [compound 7], the U937 cell viability entry in the data set with U937 cells is on record as “did not observe variation in cell viability”. In addition, on BRD9, the “BRD9 protein levels (degradation)” value was “no effect was observed”.
Regarding `CCc1nnc2c(Nc3cccc(NC(=O)CCCCCCOCCOCC(=O)Nc4cccc5c4C(=O)N(C4CCC(=O)NC4=O)C5=O)c3)nc3ccccc3n12` (centres unmarked) [compound 8], the U937 cell viability result in the data set with U937 cells was “did not observe variation in cell viability”. Further, the “BRD9 protein levels (degradation)” value at BRD9 was “no effect was observed”.
Take `CCc1nnc2c(Nc3cccc(NC(=O)CCCCCCNc4cccc5c4C(=O)N(C4CCC(=O)NC4=O)C5=O)c3)nc3ccccc3n12` (centres unmarked) [compound 4]: the U937 cell viability entry in the data set with U937 cells is given as “did not observe variation in cell viability”. Also, the “BRD9 protein levels (degradation)” value on BRD9 was “no effect was observed”.
As for `CCc1nnc2c(Nc3cccc(NC(C)=O)c3)nc3ccccc3n12` [compound 1], the U937 cell viability entry with U937 cells was “minimally affected”. The half-inhibitory concentration (IC50) at BRD9 (BD1) [3] was 4.2 ± 1.92 µM. For the same compound, on BRD9, the “BRD9 protein levels (degradation)” value is “only a slight reduction in BRD9 protein levels”.
Turning to `CCc1nnc2c(Nc3cccc(NC(=O)CCOCCOCCNc4cccc5c4C(=O)N(C4CCC(=O)NC4=O)C5=O)c3)nc3ccccc3n12` (centres unmarked) [compound 6], the U937 cell viability entry in the data set on U937 cells is “did not observe variation in cell viability”. The “BRD9 protein levels (degradation)” value on BRD9 is reported as “no effect was observed”.
